Assay results taken from patent US20250129430A1, “HIGH ATP-AFFINITY PROTEIN AS THERAPEUTIC TARGET FOR INTRACTABLE CANCER MOLECULAR SUBTYPES AND INHIBITOR THEREOF” (VeraVerse Co., Ltd., priority 2021, published 2025).
Counter-ions that a name gives are not always drawn.

Tests used:
Experiment in all cases: Cell viability drug screen, 12-point dose-response AUC
Format in all cases: cell-based, human
[1] = system: AGS; conditions: 72 hours; for area under the viability curve (AUC), normalized: AGS cells, 12-point dose-response
Method in brief: (§1)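 Viability: luminescence (Glo kit, 15 min RT), normalized to 0.5% DMSO vehicle. Dosing: half-log, 12 concentrations, 72 h. Cells: 5×10^3/well, treated 24 h after plating. Value: trapezoidal AUC, mean of repeats.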

[2] = system: Hs746T; conditions: 72 hours; for area under the viability curve (AUC), normalized: Hs746T cells, 12-point dose-response
Method in brief: as §1

[3] = system: KATO3; conditions: KATO3 cells, 72 hours; for area under the viability curve (AUC), normalized: 12-point dose-response
Method in brief: as §1

[4] = system: MKN1; conditions: MKN1 cells, 72 hours; for area under the viability curve (AUC), normalized: 12-point dose-response
Method in brief: as §1

[5] = system: MKN28; conditions: MKN28 cells, 72 hours; for area under the viability curve (AUC), normalized: 12-point dose-response
Method in brief: as §1

[6] = system: MKN45; conditions: 72 hours; for area under the viability curve (AUC), normalized: MKN45 cells, 12-point dose-response
Method in brief: as §1

[7] = system: MKN74; conditions: MKN74 cells, 72 hours; for area under the viability curve (AUC), normalized: 12-point dose-response
Method in brief: as §1

[8] = system: NCC19; conditions: NCC19 cells, 72 hours; for area under the viability curve (AUC), normalized: 12-point dose-response
Method in brief: as §1

[9] = system: NCC20; conditions: NCC20 cells, 72 hours; for area under the viability curve (AUC), normalized: 12-point dose-response
Method in brief: as §1

[10] = system: NCC24; conditions: NCC24 cells, 72 hours; for area under the viability curve (AUC), normalized: 12-point dose-response
Method in brief: as §1

[11] = system: NCC59; conditions: NCC59 cells, 72 hours; for area under the viability curve (AUC), normalized: 12-point dose-response
Method in brief: as §1

[12] = system: NCI_N87; conditions: NCI_N87 cells, 72 hours; for area under the viability curve (AUC), normalized: 12-point dose-response
Method in brief: as §1

[13] = system: OCUM1; conditions: OCUM1 cells, 72 hours; for area under the viability curve (AUC), normalized: 12-point dose-response
Method in brief: as §1

[14] = system: SK4; conditions: 72 hours; for area under the viability curve (AUC), normalized: SK4 cells, 12-point dose-response
Method in brief: as §1

[15] = system: SNU16; conditions: SNU16 cells, 72 hours; for area under the viability curve (AUC), normalized: 12-point dose-response
Method in brief: as §1

[16] = system: SNU1750; conditions: 72 hours; for area under the viability curve (AUC), normalized: SNU1750 cells, 12-point dose-response
Method in brief: as §1

[17] = system: SNU1967; conditions: SNU1967 cells, 72 hours; for area under the viability curve (AUC), normalized: 12-point dose-response
Method in brief: as §1

[18] = system: SNU1; conditions: SNU1 cells, 72 hours; for area under the viability curve (AUC), normalized: 12-point dose-response
Method in brief: as §1

[19] = system: SNU216; conditions: 72 hours; for area under the viability curve (AUC), normalized: SNU216 cells, 12-point dose-response
Method in brief: as §1

[20] = system: SNU484; conditions: 72 hours; for area under the viability curve (AUC), normalized: SNU484 cells, 12-point dose-response
Method in brief: as §1

[21] = system: SNU601; conditions: SNU601 cells, 72 hours; for area under the viability curve (AUC), normalized: 12-point dose-response
Method in brief: as §1

[22] = system: SNU620; conditions: SNU620 cells, 72 hours; for area under the viability curve (AUC), normalized: 12-point dose-response
Method in brief: as §1

[23] = system: SNU638; conditions: SNU638 cells, 72 hours; for area under the viability curve (AUC), normalized: 12-point dose-response
Method in brief: as §1

[24] = system: SNU668; conditions: 72 hours; for area under the viability curve (AUC), normalized: SNU668 cells, 12-point dose-response
Method in brief: as §1

[25] = system: SNU719; conditions: SNU719 cells, 72 hours; for area under the viability curve (AUC), normalized: 12-point dose-response
Method in brief: as §1

[26] = system: YCC11; conditions: 72 hours; for area under the viability curve (AUC), normalized: YCC11 cells, 12-point dose-response
Method in brief: as §1

[27] = system: YCC2; conditions: YCC2 cells, 72 hours; for area under the viability curve (AUC), normalized: 12-point dose-response
Method in brief: as §1

[28] = system: YCC3; conditions: YCC3 cells, 72 hours; for area under the viability curve (AUC), normalized: 12-point dose-response
Method in brief: as §1

[29] = system: FU97; design: Average Area Under the Viability Curve (AUC), AUC norm value: scale not given here; conditions: FU97 cells, 72 hours; for area under the viability curve (AUC), normalized: 12-point dose-response
Method in brief: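 Trapezoidal AUC of a 12-point, DMSO-normalized dose-response curve. Luminescent viability was measured after 72 h of exposure at 37° C to half-log serial dilutions (0.5% DMSO control), dosed 24 h after plating FU97 cells at 5×10^3 per well.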

SMILES: O=C1c2c(O)ccc(O)c2C(=O)c2c(NCCNCCO)ccc(NCCNCCO)c21 [Mitoxantrone Hydrochloride]
- area under the viability curve (AUC), normalized [1]: −1.671
- area under the viability curve (AUC), normalized [2]: 0.5925
- area under the viability curve (AUC), normalized [3]: 4.807
- area under the viability curve (AUC), normalized [4]: −1.197
- area under the viability curve (AUC), normalized [5]: 1.616
- area under the viability curve (AUC), normalized [6]: 2.014
- area under the viability curve (AUC), normalized [7]: −0.2914
- area under the viability curve (AUC), normalized [8]: 2.884
- area under the viability curve (AUC), normalized [9]: −0.7422
- area under the viability curve (AUC), normalized [10]: −1.038
- area under the viability curve (AUC), normalized [11]: 1.001
- area under the viability curve (AUC), normalized [12]: 2.6755
- area under the viability curve (AUC), normalized [13]: 0.8078
- area under the viability curve (AUC), normalized [14]: −0.6127
- area under the viability curve (AUC), normalized [15]: 1.6
- area under the viability curve (AUC), normalized [16]: −0.3587
- area under the viability curve (AUC), normalized [17]: −1.342
- area under the viability curve (AUC), normalized [18]: 0
- area under the viability curve (AUC), normalized [19]: 1.1656
- area under the viability curve (AUC), normalized [20]: −1.158
- area under the viability curve (AUC), normalized [21]: −0.5251
- area under the viability curve (AUC), normalized [22]: −0.6012
- area under the viability curve (AUC), normalized [23]: −1.06
- area under the viability curve (AUC), normalized [24]: −0.6581
- area under the viability curve (AUC), normalized [25]: 3.647
- area under the viability curve (AUC), normalized [26]: −1.252
- area under the viability curve (AUC), normalized [27]: 0.5126
- area under the viability curve (AUC), normalized [28]: 2.27
- area under the viability curve (AUC), normalized [29]: 0.4542

SMILES: COC(=O)Nc1nc2ccc(C(=O)c3cccs3)cc2[nH]1 [Nocodazole]
- Average Area Under the Viability Curve (AUC), AUC norm value ([1]; AGS cells (non-SEM subtype)): −1.573
- Average Area Under the Viability Curve (AUC), AUC norm value ([2]; Hs746T cells (SEM subtype)): 1.28
- Average Area Under the Viability Curve (AUC), AUC norm value [3]: 3.188
- Average Area Under the Viability Curve (AUC), AUC norm value [4]: −0.6519
- Average Area Under the Viability Curve (AUC), AUC norm value [5]: −0.1478
- Average Area Under the Viability Curve (AUC), AUC norm value ([6]; MKN45 cells (non-SEM subtype)): 2.005
- Average Area Under the Viability Curve (AUC), AUC norm value [7]: 0.7081
- Average Area Under the Viability Curve (AUC), AUC norm value [8]: 0.8717
- Average Area Under the Viability Curve (AUC), AUC norm value [9]: −1.695
- Average Area Under the Viability Curve (AUC), AUC norm value [10]: 0
- Average Area Under the Viability Curve (AUC), AUC norm value [11]: 3.0345
- Average Area Under the Viability Curve (AUC), AUC norm value [12]: −0.7843
- Average Area Under the Viability Curve (AUC), AUC norm value [13]: 0.7248
- Average Area Under the Viability Curve (AUC), AUC norm value ([14]; SK4 cells (SEM subtype)): −0.374
- Average Area Under the Viability Curve (AUC), AUC norm value [15]: −1.507
- Average Area Under the Viability Curve (AUC), AUC norm value ([16]; SNU1750 cells (SEM subtype)): 0.7502
- Average Area Under the Viability Curve (AUC), AUC norm value [17]: −0.07292
- Average Area Under the Viability Curve (AUC), AUC norm value [18]: −0.7242
- Average Area Under the Viability Curve (AUC), AUC norm value ([19]; SNU216 cells (non-SEM subtype)): 2.032
- Average Area Under the Viability Curve (AUC), AUC norm value ([20]; SNU484 cells (SEM subtype)): −0.8136
- Average Area Under the Viability Curve (AUC), AUC norm value [21]: 1.743
- Average Area Under the Viability Curve (AUC), AUC norm value [22]: −0.735
- Average Area Under the Viability Curve (AUC), AUC norm value [23]: −0.1875
- Average Area Under the Viability Curve (AUC), AUC norm value ([24]; SNU668 cells (SEM subtype)): −0.1188
- Average Area Under the Viability Curve (AUC), AUC norm value [25]: 4.976
- Average Area Under the Viability Curve (AUC), AUC norm value ([26]; YCC11 cells (SEM subtype)): −0.8279
- Average Area Under the Viability Curve (AUC), AUC norm value [27]: 1.3363
- Average Area Under the Viability Curve (AUC), AUC norm value [28]: 3.066
- Average Area Under the Viability Curve (AUC), AUC norm value [29]: 0.3797

SMILES: CC(=O)O[C@H]1C(=O)[C@@]2(C)[C@H]([C@H](OC(=O)c3ccccc3)[C@]3(O)C[C@H](OC(=O)[C@H](O)[C@@H](NC(=O)c4ccccc4)c4ccccc4)C(C)=C1C3(C)C)[C@]1(OC(C)=O)CO[C@@H]1C[C@@H]2O [Paclitaxel (Taxol), Paclitaxel]
- area under the viability curve (AUC), normalized [1]: −1.831
- area under the viability curve (AUC), normalized [2]: 0.7342
- area under the viability curve (AUC), normalized [3]: 5.3572
- area under the viability curve (AUC), normalized [4]: −1.258
- area under the viability curve (AUC), normalized [5]: −0.2731
- area under the viability curve (AUC), normalized [6]: 1.473
- area under the viability curve (AUC), normalized [7]: 0.186
- area under the viability curve (AUC), normalized [8]: 1.902
- area under the viability curve (AUC), normalized [9]: 0
- area under the viability curve (AUC), normalized [10]: −1.616
- area under the viability curve (AUC), normalized [11]: 3.637
- area under the viability curve (AUC), normalized [12]: −1.013
- area under the viability curve (AUC), normalized [13]: 2.909
- area under the viability curve (AUC), normalized [14]: −0.872
- area under the viability curve (AUC), normalized [15]: −0.5105
- area under the viability curve (AUC), normalized [16]: 0.811
- area under the viability curve (AUC), normalized [17]: 0.05016
- area under the viability curve (AUC), normalized [18]: −1.778
- area under the viability curve (AUC), normalized [19]: 2.148
- area under the viability curve (AUC), normalized [20]: −0.3604
- area under the viability curve (AUC), normalized [21]: −1.106
- area under the viability curve (AUC), normalized [22]: −1.998
- area under the viability curve (AUC), normalized [23]: −0.3898
- area under the viability curve (AUC), normalized [24]: −0.02282
- area under the viability curve (AUC), normalized [25]: 4.877
- area under the viability curve (AUC), normalized [26]: −0.8302
- area under the viability curve (AUC), normalized [27]: 0.5673
- area under the viability curve (AUC), normalized [28]: 3.81
- area under the viability curve (AUC), normalized [29]: 0.989
